Measured values published in patent publication US7919468B2, “Compounds useful as modulators of the proteasome activity” (Centre National de la Recherche Scientifique (C.N.R.S.), priority 2005, dated 2011).
pIC50, pKi: −log10 of the molar value. Peptide text beside a SMILES is read from it. * marks the point of attachment. Boc = CC(C)(C)OC(=O)*; NHBn = c1ccc(CN*)cc1; NHPh = c1ccc(N*)cc1; Bn = c1ccc(C*)cc1

How the values were obtained:
Type in all cases: biochemical
[1] = test system: T1, rabbit 20S proteasome, chymotrypsin-like (CT-L) activity; assay: Rabbit 20S proteasome fluorescent assay, chymotrypsin-like activity (Suc-LLVY-amc); conditions: [Compound]=100 μM, pH 7.5, 30° C.
T1 construct: other: [Compound]=100 μM, pH 7.5, 30° C
Description: (§1) 20S proteasome from rabbit reticulocyte was from commercial source (Alexis Biochemicals)
(§2) Semi-automatic fluorescent assays using Suc-LLVY-amc (SEQ ID NO: 2) for chymotrypsin-like activity, Z-LLE-SNA for post-acid activity and Boc-LLR-amc for trypsin-like activity of proteasome were performed at pH 7.5 and 30° C. using BMG Fluostar microplate reader (Suc=succinyl; amc=7-amino-4-methylcoumarin; Z=benzyloxycarbonyl; NA=2-naphtylamine; Boc=tert-butoxycarbonyl). The buffers were: 20 mM Tris, 1 mM DTT, 10% glycerol, 3% (v/v) DMSO (ChT-L and PA activities); 20 mM Tris, 1 mM DTT, 10% glycerol, 3% (v/v) DMSO. Studied compounds were dissolved in DMSO prior dissolution in the buffer. Proteasome was incubated for 15 min at 30° C. in the presence of the studied compound (0.1-100 μM). A control assay in the absence of tested compounds contained DMSO at the same concentration (3%, v/v). The fluorogenic proteasome substrate was then added and the hydrolysis of the appropriate fluorescent substrate was monitored for 1 h (λexc=360, λem=465 nm for amc substrates and λexc=340, λem=405 nm for the βNA substrate). Initial rates determined in control experiments were considered to be 100% of the peptidasic activity; initial rates that were above 100% in the presence of a test compound were considered to be activations, while initial rates below 100% were considered to be inhibitions. For weak inhibitors, the percentage of inhibition at a reference concentration (100 μM) is reported. The results, expressed in % inhibition (or activation factor), were obtained by calculating the average of at least two independent experiments, the variability was less than 10%. The inhibitory activity of more efficient compounds are expressed as IC50 calculated by fitting the experimental data to the equation 1: % Inhibition=100 [I]0/(IC50+[I]0)=100 (v0−vi/v0), or equation 2: % Inhibition=100 [I]0^nH/(IC50^nH+[I]0^nH), nH is the Hill number. v0 and vi are the initial rates in the absence and in the presence of inhibitor. A Dixon plot has been used to determine the inhibition constant Ki for competitive inhibition by compound A215. The reversible character of inhibition or activation was determined by measuring the activity of treated enzyme after the inhibitor molecule has been withdrawn from the reaction medium.
(§3) Inhibition of Rabbit 20 S Proteasome (pH=7.5, 30° C.)
(§4) Activation of Rabbit 20 S Proteasome (pH=7.5, 30° C., [Compound]=100 μM)

[2] = test system: rabbit 20S proteasome, trypsin-like (T-L) activity; assay: Rabbit 20S proteasome fluorescent assay, trypsin-like activity (Boc-LLR-amc); conditions: [Compound]=100 μM, pH 7.5, 30° C.
Description: as §1, §2, §3, §4

[3] = biological target: T2, rabbit 20S proteasome, chymotrypsin-like (CT-L) activity (Oryctolagus cuniculus, UniProt G1T4Q9); assay: Rabbit 20S proteasome fluorescent assay, chymotrypsin-like activity (Suc-LLVY-amc); conditions: pH 7.5, 30° C.; for inhibition at 100 µM: 100 μM compound
T2 construct: other: 100 μM compound, pH 7.5, 30° C; other: pH 7.5, 30° C; CT-L Ki
T2 sequence (G1T4Q9 1-263): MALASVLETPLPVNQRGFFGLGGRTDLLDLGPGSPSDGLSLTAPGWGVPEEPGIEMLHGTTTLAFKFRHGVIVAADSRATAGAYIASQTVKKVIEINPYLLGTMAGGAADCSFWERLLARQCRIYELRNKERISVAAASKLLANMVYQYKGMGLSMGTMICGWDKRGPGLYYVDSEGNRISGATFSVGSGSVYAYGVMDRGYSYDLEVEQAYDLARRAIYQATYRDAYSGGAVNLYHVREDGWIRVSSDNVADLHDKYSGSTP
Description: as §1, §2, §3, §4

[4] = biological target: T3, rabbit 20S proteasome, post-acid (PA) activity (Oryctolagus cuniculus, UniProt A0A5F9DQW2); assay: Rabbit 20S proteasome fluorescent assay, post-acid activity (Z-LLE-βNA); conditions: pH 7.5, 30° C.; for PA % inhibition (at 100 μM): 100 μM compound
T3 construct: other: 100 μM compound, pH 7.5, 30° C; other: pH 7.5, 30° C
Description: as §1, §2, §3, §4

[5] = biological target: T4, rabbit 20S proteasome, trypsin-like (T-L) activity (Oryctolagus cuniculus, UniProt G1SWK8); assay: Rabbit 20S proteasome fluorescent assay, trypsin-like activity (Boc-LLR-amc); conditions: pH 7.5, 30° C.; for inhibition at 100 µM: 100 μM compound
T4 construct: other: 100 μM compound, pH 7.5, 30° C; other: pH 7.5, 30° C
T4 sequence (G1SWK8 1-271): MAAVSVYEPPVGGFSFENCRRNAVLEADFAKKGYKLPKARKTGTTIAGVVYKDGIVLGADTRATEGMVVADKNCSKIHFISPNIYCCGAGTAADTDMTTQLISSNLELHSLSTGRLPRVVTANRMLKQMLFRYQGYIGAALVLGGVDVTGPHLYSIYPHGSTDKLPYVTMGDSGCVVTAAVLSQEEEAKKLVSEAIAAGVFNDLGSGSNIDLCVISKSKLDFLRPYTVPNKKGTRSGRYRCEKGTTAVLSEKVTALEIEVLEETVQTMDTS
Description: as §1, §2, §3, §4

[6] = test system: rabbit 20S proteasome, post-acid (PA) activity; assay: Rabbit 20S proteasome fluorescent assay, post-acid activity (Z-LLE-βNA); conditions: [Compound]=100 μM, pH 7.5, 30° C.
Description: as §1, §2, §3, §4

T3 sequence (A0A5F9DQW2 1-212): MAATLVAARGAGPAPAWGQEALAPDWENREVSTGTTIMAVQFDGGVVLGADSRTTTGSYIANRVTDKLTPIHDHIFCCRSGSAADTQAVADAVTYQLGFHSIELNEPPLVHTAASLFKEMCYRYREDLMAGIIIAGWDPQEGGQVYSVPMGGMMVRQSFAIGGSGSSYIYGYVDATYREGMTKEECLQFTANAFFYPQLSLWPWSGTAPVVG

SMILES: CC(C)C[C@H](NC(=O)[C@H](Cc1ccc(OCc2ccccc2)cc1)NC(=O)OC(C)(C)C)C(=O)N[C@@H](Cc1c[nH]c2ccccc12)C(=O)Nc1ccccc1 [A424P, N-Boc-Tyr(Bn)-Leu-Trp-NHPh] (Boc-Tyr(Bn)-Leu-Trp-NHPh)
- CT-L Activation factor [1]: 1.2
- T-L Activation factor [2]: 1.9

SMILES: CC(C)(C)OC(=O)N[C@@H](Cc1ccc(O)cc1)C(=O)N[C@@H](CCCNC(=N)N)C(=O)N[C@@H](Cc1c[nH]c2ccccc12)C(=O)NCc1ccccc1 [SP325, N-Boc-Tyr-Arg-Trp-NHCH2Ph] (Boc-Tyr-Arg-Trp-NHBn)
- pIC50 [3]: 5.27
- pIC50 [4]: 5.60
- pIC50 [5]: 4.72

SMILES: CC(C)(C)OC(=O)NCCCC[C@H](NC(=O)[C@H](Cc1ccc(OCc2ccccc2)cc1)NC(=O)OC(C)(C)C)C(=O)N[C@@H](Cc1c[nH]c2ccccc12)C(=O)NCc1ccccc1 [SP307P, N-Boc-Tyr(Bn)-Lys(Boc)-Trp-NHCH2Ph] (Boc-Tyr(Bn)-Lys(Boc)-Trp-NHBn)
- CT-L Activation factor [1]: 1.3
- T-L Activation factor [2]: 1.8

SMILES: C[C@H](NC(=O)[C@H](Cc1ccc(OCc2ccccc2)cc1)NC(=O)OC(C)(C)C)C(=O)N[C@@H](Cc1c[nH]c2ccccc12)C(=O)NCCCCNC(=O)OC(C)(C)C [SP305R, N-Boc-Tyr(Bn)-Ala-Trp-NH(CH2)4NHBoc]
- CT-L Activation factor [1]: 1.5
- PA Activation factor [6]: 1.2
- T-L Activation factor [2]: 3.2

SMILES: CNC(=O)[C@H](Cc1c[nH]c2c(-c3cc(C[C@H](NC(=O)OC(C)(C)C)C(=O)N[C@@H](CC(C)C)C(=O)OC)ccc3OCc3ccccc3)cccc12)NC(=O)OCc1ccccc1 [SP226F1]
- inhibition at 100 µM [5]: 23%

SMILES: CC(C)(C)OC(=O)NCCCCNC(=O)[C@H](Cc1c[nH]c2ccccc12)NC(=O)[C@H](CCCCNC(=O)OC(C)(C)C)NC(=O)[C@H](Cc1ccc(OCc2ccccc2)cc1)NC(=O)OC(C)(C)C [SP308P, N-Boc-Tyr(Bn)-Lys(Boc)-Trp-NH(CH2)4NHBoc]
- CT-L Activation factor [1]: 1.6
- T-L Activation factor [2]: 1.9

SMILES: CC(C)(C)OC(=O)NCCCC[C@H](NC(=O)[C@H](Cc1ccc(OCc2ccccc2)cc1)NC(=O)OC(C)(C)C)C(=O)N[C@@H](Cc1c[nH]c2ccccc12)C(=O)Nc1ccccc1 [SP306P, N-Boc-Tyr(Bn)-Lys(Boc)-Trp-NHPh] (Boc-Tyr(Bn)-Lys(Boc)-Trp-NHPh)
- CT-L Activation factor [1]: 1.2
- T-L Activation factor [2]: 1.6

SMILES: CC(C)(C)OC(=O)NCCCC[C@H](NC(=O)[C@H](Cc1ccc(OCc2ccccc2)cc1)NC(=O)OC(C)(C)C)C(=O)N[C@@H](Cc1c[nH]c2ccccc12)C(=O)Nc1ccc(O)cc1 [SP319P, N-Boc-Tyr(Bn)-Lys(Boc)-Trp-NH(4-OH)Ph]
- inhibition at 100 µM [3]: 36%
- inhibition at 100 µM [5]: 14%

SMILES: CC(C)(C)OC(=O)N[C@@H](Cc1ccc(OCc2ccccc2)cc1)C(=O)NCC(=O)N[C@@H](Cc1c[nH]c2ccccc12)C(=O)NCc1ccccc1 [PSV11R, N-Boc-Tyr(Bn)-Gly-Trp-NHCH2Ph] (Boc-Tyr(Bn)-Gly-Trp-NHBn)
- CT-L Activation factor [1]: 1.2
- PA % inhibition (at 100 μM) [4]: 59%
- T-L Activation factor [2]: 1.7

SMILES: CC(C)(C)OC(=O)N[C@@H](Cc1ccc(OCc2ccccc2)cc1)C(=O)N[C@@H](CC(N)=O)C(=O)N[C@@H](Cc1c[nH]c2ccccc12)C(=O)Nc1ccccc1 [SP314C2, N-Boc-Tyr(Bn)-Asn-Trp-NHPh] (Boc-Tyr(Bn)-Asn-Trp-NHPh)
- CT-L Activation factor [1]: 1.5
- T-L Activation factor [2]: 2.5

SMILES: CC(C)(C)OC(=O)NCCCCNC(=O)[C@H](Cc1c[nH]c2ccccc12)NC(=O)[C@H](CCCN(C(=N)NC(=O)OCc1ccccc1)C(=O)OCc1ccccc1)NC(=O)[C@H](Cc1ccc(OCc2ccccc2)cc1)NC(=O)OC(C)(C)C [SP311C, N-Boc-Tyr(Bn)-Arg(Z)-2-Trp-NH(CH2)4NHBoc]
- CT-L Activation factor [1]: 1.3
- PA Activation factor [6]: 1.2
- T-L Activation factor [2]: 1.9

SMILES: C[C@H](NC(=O)[C@H](Cc1ccc(OCc2ccccc2)cc1)NC(=O)OC(C)(C)C)C(=O)N[C@@H](Cc1c[nH]c2ccccc12)C(=O)Nc1ccccc1 [SP303r2, N-Boc-Tyr(Bn)-Ala-Trp-NHPh] (Boc-Tyr(Bn)-Ala-Trp-NHPh)
- CT-L Activation factor [1]: 1.4
- T-L Activation factor [2]: 1.6

SMILES: CC(C)(C)OC(=O)N[C@@H](Cc1ccc(OCc2ccccc2)cc1)C(=O)N[C@@H](CCCN(C(=N)NC(=O)OCc1ccccc1)C(=O)OCc1ccccc1)C(=O)N[C@@H](Cc1c[nH]c2ccccc12)C(=O)Nc1ccccc1 [SP310C, N-Boc-Tyr(Bn)-Arg(Z)-2-Trp-NHPh]
- CT-L Activation factor [1]: 1.7
- T-L Activation factor [2]: 1.6

SMILES: CC(C)C[C@H](NC(=O)[C@H](Cc1ccc(OCc2ccccc2)cc1)NC(=O)OC(C)(C)C)C(=O)N[C@@H](Cc1c[nH]c2ccccc12)C(=O)NCc1ccccc1 [A414P, N-Boc-Tyr(Bn)-Leu-Trp-NHCH2Ph] (Boc-Tyr(Bn)-Leu-Trp-NHBn)
- CT-L Activation factor [1]: 1.3
- T-L Activation factor [2]: 1.9

SMILES: CC(C)C[C@H](NC(=O)[C@H](Cc1ccc(OCc2ccccc2)cc1)NC(=O)OC(C)(C)C)C(=O)N[C@@H](Cc1c[nH]c2ccccc12)C(=O)NCCCCNC(=O)OC(C)(C)C [SP296P, N-Boc-Tyr(Bn)-Leu-Trp-NH(CH2)4NHBoc]
- inhibition at 100 µM [3]: 22%
- PA % inhibition (at 100 μM) [4]: 59%
- T-L Activation factor [2]: 2.3

SMILES: CC(C)(C)OC(=O)N[C@@H](Cc1ccc(OCc2ccccc2)cc1)C(=O)N[C@@H](CCCN(C(=N)NC(=O)OCc1ccccc1)C(=O)OCc1ccccc1)C(=O)N[C@@H](Cc1c[nH]c2ccccc12)C(=O)NCc1ccccc1 [SP315C2, N-Boc-Tyr(Bn)-Arg(Z)-2-Trp-NHCH2Ph]
- CT-L Activation factor [1]: 1.2
- T-L Activation factor [2]: 1.9

SMILES: CC(C)(C)OC(=O)N[C@@H](Cc1ccc(O)cc1)C(=O)N[C@@H](CCCNC(=N)N)C(=O)N[C@@H](Cc1c[nH]c2ccccc12)C(=O)Nc1ccc(O)cc1 [SP324, N-Boc-Tyr-Arg-Trp-NH(4-OH)Ph]
- pIC50 [3]: 5.05
- pIC50 [4]: 5.52
- pIC50 [5]: 4.68

SMILES: C[C@H](NC(=O)[C@H](Cc1ccc(OCc2ccccc2)c(I)c1)NC(=O)OC(C)(C)C)C(=O)N[C@@H](Cc1c[nH]c2c(Br)cccc12)C(=O)O [A215, N-Boc-3-iodo-Tyr(Bn)-Ala-7-bromo-Trp-OH]
- pKi ([3]; Dixon plot, competitive inhibition): 5.70
- pIC50 [3]: 5.17
- pIC50 [4]: 4.95
- pIC50 [5]: 4.84

SMILES: CNC(=O)[C@H](Cc1c[nH]c2c(-c3cc(C[C@H](NC(=O)OC(C)(C)C)C(=O)N[C@@H](C)C(=O)OC)ccc3OCc3ccccc3)cccc12)NC(=O)OCc1ccccc1 [SP225F2]
- PA % inhibition (at 100 μM) [4]: 25%
- inhibition at 100 µM [5]: 49%
